Test results: patent publication US20230338380A1, “Stable Immediate Release Tablet and Capsule Formulations of 1-((2S,5R)-5-((7H-Pyrrolo[2,3-D]Pyrimidin-4-YL)Amino)-2-Methylpiperidin-1-YL)Prop-2-EN-1-One” (Pfizer R&D UK Limited, priority 2019, published 2023)

Test: Dynamic vapor sorption (DVS) of filler excipients
Type: physicochemical
Details: excipient alone; humidity of 90% RH
Excerpt: Also noted were the stability results for experimental formulation E, blended with lactose anhydrous. […] Lactose anhydrous was used in blend E rather than lactose monohydrate due to concerns regarding the impact of water upon the degradation of PF-06651600-15. To further explore the hygroscopic properties of lactose monohydrate, dynamic vapor sorption (DVS) traces were generated for both lactose anhydrous and lactose monohydrate (FIG. 24). The results for both were similar as the mass increased less than 2% at a humidity of 90% RH.

Mass increase (DVS): ~1.1%
SMILES: OC[C@H]1O[C@@H](O[C@H]2[C@H](O)[C@@H](O)C(O)O[C@@H]2CO)[C@H](O)[C@@H](O)[C@H]1O (stereo partly shown) [lactose anhydrous]
